Test system: spontaneously hypertensive rats
Experiment: Heart rate change in spontaneously hypertensive rats
Format: in vivo, rat
Settings: SHR, intragastric, 1 mg/kg (calculated by effective dose of Azilsartan), 1 hour after administration, relative to before administration
Experimental: (§1) 12-week-old spontaneously hypertensive rats (hereinafter referred to as SHR, purchased from Beijing Weitong Lihua Experimental Animal Technology Co., Ltd.) were anesthetized with 2.5% sodium pentobarbital for intraperitoneal injection. After that, the blood pressure sensing catheter of hypertension implant was inserted into their abdominal aorta, while the implant was fixed to the abdominal wall, and then postoperative daily care was performed after suturing. Rats with systolic blood pressure exceeding 160 mm Hg were divided into 3 groups (control group, QR01019 group and QR01019K group) wherein each group has 8 rats. The control group was administrated 0.5% sodium carboxymethylcellulose (hereinafter referred to as CMC-Na); QR01019 group and QR01019K group were respectively administered, both of which were dissolved by 0.5% CMC-Na, by intragastric administration, at a dose of 1 mg/kg (calculated by the effective dose of Azilsartan) and a volume calculated by 4 mL/kg. The systolic blood pressure and heart rate of SHR were compared before and after administration (the systolic blood pressure and heart rate of SHR before administration as reference value), which were detected three times at each time point with the average value recorded.

Row | Structure (SMILES) | Heart rate change, 1 hour after administration (average ± standard error) [times/minute]
1 | CCOc1nc2cccc(C(=O)OC(C)OC(=O)OCc3nc(C)c(C)nc3C)c2n1Cc1ccc(-c2ccccc2-c2noc(=O)[n-]2)cc1.[K+] (stereo not drawn) [QR01019K] | −3.6 ± 2.4
2 | CCOc1nc2cccc(C(=O)OC(C)OC(=O)OCc3nc(C)c(C)nc3C)c2n1Cc1ccc(-c2ccccc2-c2noc(=O)[nH]2)cc1 (stereo not drawn) [QR01019] | −3.4 ± 2.6

Same assay, conditions: SHR, intragastric, 1 mg/kg (calculated by effective dose of Azilsartan), 3 hours after administration, relative to before administration

Row | Structure (SMILES) | Heart rate change, 3 hours after administration (average ± standard error) [times/minute]
3 | CCOc1nc2cccc(C(=O)OC(C)OC(=O)OCc3nc(C)c(C)nc3C)c2n1Cc1ccc(-c2ccccc2-c2noc(=O)[n-]2)cc1.[K+] (stereo not drawn) [QR01019K] | −5.0 ± 2.5
4 | CCOc1nc2cccc(C(=O)OC(C)OC(=O)OCc3nc(C)c(C)nc3C)c2n1Cc1ccc(-c2ccccc2-c2noc(=O)[nH]2)cc1 (stereo not drawn) [QR01019] | −2.33 ± 2.6

Same assay, conditions: SHR, intragastric, 1 mg/kg (calculated by effective dose of Azilsartan), 5 hours after administration, relative to before administration

Row | Structure (SMILES) | Heart rate change, 5 hours after administration (average ± standard error) [times/minute]
5 | CCOc1nc2cccc(C(=O)OC(C)OC(=O)OCc3nc(C)c(C)nc3C)c2n1Cc1ccc(-c2ccccc2-c2noc(=O)[n-]2)cc1.[K+] (stereo not drawn) [QR01019K] | −10.1 ± 3.0
6 | CCOc1nc2cccc(C(=O)OC(C)OC(=O)OCc3nc(C)c(C)nc3C)c2n1Cc1ccc(-c2ccccc2-c2noc(=O)[nH]2)cc1 (stereo not drawn) [QR01019] | −6.5 ± 2.8

Same assay, conditions: SHR, intragastric, 1 mg/kg (calculated by effective dose of Azilsartan), 7 hours after administration, relative to before administration

Row | Structure (SMILES) | Heart rate change, 7 hours after administration (average ± standard error) [times/minute]
7 | CCOc1nc2cccc(C(=O)OC(C)OC(=O)OCc3nc(C)c(C)nc3C)c2n1Cc1ccc(-c2ccccc2-c2noc(=O)[n-]2)cc1.[K+] (stereo not drawn) [QR01019K] | −17.5 ± 3.0
8 | CCOc1nc2cccc(C(=O)OC(C)OC(=O)OCc3nc(C)c(C)nc3C)c2n1Cc1ccc(-c2ccccc2-c2noc(=O)[nH]2)cc1 (stereo not drawn) [QR01019] | −6.2 ± 3.0

Same assay, conditions: SHR, intragastric, 1 mg/kg (calculated by effective dose of Azilsartan), 10 hours after administration, relative to before administration

Row | Structure (SMILES) | Heart rate change, 10 hours after administration (average ± standard error) [times/minute]
9 | CCOc1nc2cccc(C(=O)OC(C)OC(=O)OCc3nc(C)c(C)nc3C)c2n1Cc1ccc(-c2ccccc2-c2noc(=O)[n-]2)cc1.[K+] (stereo not drawn) [QR01019K] | −25.4 ± 2.4
10 | CCOc1nc2cccc(C(=O)OC(C)OC(=O)OCc3nc(C)c(C)nc3C)c2n1Cc1ccc(-c2ccccc2-c2noc(=O)[nH]2)cc1 (stereo not drawn) [QR01019] | −12.3 ± 2.8

Same assay, conditions: SHR, intragastric, 1 mg/kg (calculated by effective dose of Azilsartan), 24 hours after administration, relative to before administration

Row | Structure (SMILES) | Heart rate change, 24 hours after administration (average ± standard error) [times/minute]
11 | CCOc1nc2cccc(C(=O)OC(C)OC(=O)OCc3nc(C)c(C)nc3C)c2n1Cc1ccc(-c2ccccc2-c2noc(=O)[n-]2)cc1.[K+] (stereo not drawn) [QR01019K] | −28.6 ± 8
12 | CCOc1nc2cccc(C(=O)OC(C)OC(=O)OCc3nc(C)c(C)nc3C)c2n1Cc1ccc(-c2ccccc2-c2noc(=O)[nH]2)cc1 (stereo not drawn) [QR01019] | −6.7 ± 2.6

Same assay, conditions: SHR, oral administration; result in words

Row | Structure (SMILES) | heart rate lowering effect compared with the corresponding unsalted compound
13 | CCOc1nc2cccc(C(=O)OCOC(=O)C(C)(C)C)c2n1Cc1ccc(-c2ccccc2-c2noc(=O)[n-]2)cc1.[K+] [QR01005K] | more potent and longer-lasting
14 | CCOc1nc2cccc(C(=O)OCCCCO[N+](=O)[O-])c2n1Cc1ccc(-c2ccccc2-c2noc(=O)[n-]2)cc1.[K+] [QR01008K] | more potent and longer-lasting
15 | CCOc1nc2cccc(C(=O)OCc3c(-c4ccccc4)no[n+]3[O-])c2n1Cc1ccc(-c2ccccc2-c2noc(=O)[n-]2)cc1.[K+] [QR01009K] | more potent and longer-lasting
16 | CCOc1nc2cccc(C(=O)OCCCCOc3no[n+]([O-])c3S(=O)(=O)c3ccccc3)c2n1Cc1ccc(-c2ccccc2-c2noc(=O)[n-]2)cc1.[K+] [QR01011K] | more potent and longer-lasting
17 | CCOc1nc2cccc(C(=O)OCc3oc(=S)oc3C)c2n1Cc1ccc(-c2ccccc2-c2noc(=O)[n-]2)cc1.[K+] [QR01013K] | more potent and longer-lasting
18 | CCOc1nc2cccc(C(=O)OCOC(=O)OCc3nc(C)c(C)nc3C)c2n1Cc1ccc(-c2ccccc2-c2noc(=O)[n-]2)cc1.[K+] [QR01017K] | more potent and longer-lasting
19 | CCOc1nc2cccc(C(=O)OC(C)OC(=O)OCc3nc(C)c(C)nc3C)c2n1Cc1ccc(-c2ccccc2-c2noc(=O)[n-]2)cc1.[K+] (stereo not drawn) [QR01019K] | more potent with a longer-lasting heart rate lowing effect
20 | CCOc1nc2cccc(C(=O)OCOC(=O)OCc3no[n+]([O-])c3C)c2n1Cc1ccc(-c2ccccc2-c2noc(=O)[n-]2)cc1.[K+] [QR01020K] | more potent and longer-lasting

Test system: spontaneously hypertensive rats
Experiment: Antihypertensive efficacy test in spontaneously hypertensive rats: systolic blood pressure change
Format: in vivo, rat
Settings: SHR, after 3 hours of administration; result in words
Experimental: as §1

Row | Structure (SMILES) | systolic blood pressure compared with the control group
21 | CCOc1nc2cccc(C(=O)OC(C)OC(=O)OCc3nc(C)c(C)nc3C)c2n1Cc1ccc(-c2ccccc2-c2noc(=O)[n-]2)cc1.[K+] (stereo not drawn) [QR01019K] | significantly decreased
22 | CCOc1nc2cccc(C(=O)OC(C)OC(=O)OCc3nc(C)c(C)nc3C)c2n1Cc1ccc(-c2ccccc2-c2noc(=O)[nH]2)cc1 (stereo not drawn) [QR01019] | significantly decreased

Same assay, conditions: SHR, intragastric, 1 mg/kg (calculated by effective dose of Azilsartan), 1 hour after administration, relative to before administration

Row | Structure (SMILES) | Systolic blood pressure change, 1 hour after administration (average ± standard error) [mmHg]
23 | CCOc1nc2cccc(C(=O)OC(C)OC(=O)OCc3nc(C)c(C)nc3C)c2n1Cc1ccc(-c2ccccc2-c2noc(=O)[n-]2)cc1.[K+] (stereo not drawn) [QR01019K] | −7.0 ± 3.4
24 | CCOc1nc2cccc(C(=O)OC(C)OC(=O)OCc3nc(C)c(C)nc3C)c2n1Cc1ccc(-c2ccccc2-c2noc(=O)[nH]2)cc1 (stereo not drawn) [QR01019] | −4.9 ± 4.8

Same assay, conditions: SHR, intragastric, 1 mg/kg (calculated by effective dose of Azilsartan), 3 hours after administration, relative to before administration

Row | Structure (SMILES) | Systolic blood pressure change, 3 hours after administration (average ± standard error) [mmHg]
25 | CCOc1nc2cccc(C(=O)OC(C)OC(=O)OCc3nc(C)c(C)nc3C)c2n1Cc1ccc(-c2ccccc2-c2noc(=O)[n-]2)cc1.[K+] (stereo not drawn) [QR01019K] | −34.3 ± 1.9
26 | CCOc1nc2cccc(C(=O)OC(C)OC(=O)OCc3nc(C)c(C)nc3C)c2n1Cc1ccc(-c2ccccc2-c2noc(=O)[nH]2)cc1 (stereo not drawn) [QR01019] | −22.0 ± 3.6

Same assay, conditions: SHR, intragastric, 1 mg/kg (calculated by effective dose of Azilsartan), 5 hours after administration, relative to before administration

Row | Structure (SMILES) | Systolic blood pressure change, 5 hours after administration (average ± standard error) [mmHg]
27 | CCOc1nc2cccc(C(=O)OC(C)OC(=O)OCc3nc(C)c(C)nc3C)c2n1Cc1ccc(-c2ccccc2-c2noc(=O)[n-]2)cc1.[K+] (stereo not drawn) [QR01019K] | −46.5 ± 2.5
28 | CCOc1nc2cccc(C(=O)OC(C)OC(=O)OCc3nc(C)c(C)nc3C)c2n1Cc1ccc(-c2ccccc2-c2noc(=O)[nH]2)cc1 (stereo not drawn) [QR01019] | −30.5 ± 3.5

Same assay, conditions: SHR, intragastric, 1 mg/kg (calculated by effective dose of Azilsartan), 7 hours after administration, relative to before administration

Row | Structure (SMILES) | Systolic blood pressure change, 7 hours after administration (average ± standard error) [mmHg]
29 | CCOc1nc2cccc(C(=O)OC(C)OC(=O)OCc3nc(C)c(C)nc3C)c2n1Cc1ccc(-c2ccccc2-c2noc(=O)[n-]2)cc1.[K+] (stereo not drawn) [QR01019K] | −49.4 ± 4.1
30 | CCOc1nc2cccc(C(=O)OC(C)OC(=O)OCc3nc(C)c(C)nc3C)c2n1Cc1ccc(-c2ccccc2-c2noc(=O)[nH]2)cc1 (stereo not drawn) [QR01019] | −38.8 ± 2.3

Same assay, conditions: SHR, intragastric, 1 mg/kg (calculated by effective dose of Azilsartan), 10 hours after administration, relative to before administration

Row | Structure (SMILES) | Systolic blood pressure change, 10 hours after administration (average ± standard error) [mmHg]
31 | CCOc1nc2cccc(C(=O)OC(C)OC(=O)OCc3nc(C)c(C)nc3C)c2n1Cc1ccc(-c2ccccc2-c2noc(=O)[n-]2)cc1.[K+] (stereo not drawn) [QR01019K] | −45.3 ± 3.3
32 | CCOc1nc2cccc(C(=O)OC(C)OC(=O)OCc3nc(C)c(C)nc3C)c2n1Cc1ccc(-c2ccccc2-c2noc(=O)[nH]2)cc1 (stereo not drawn) [QR01019] | −33.0 ± 1.7

Same assay, conditions: SHR, intragastric, 1 mg/kg (calculated by effective dose of Azilsartan), 24 hours after administration, relative to before administration

Row | Structure (SMILES) | Systolic blood pressure change, 24 hours after administration (average ± standard error) [mmHg]
33 | CCOc1nc2cccc(C(=O)OC(C)OC(=O)OCc3nc(C)c(C)nc3C)c2n1Cc1ccc(-c2ccccc2-c2noc(=O)[n-]2)cc1.[K+] (stereo not drawn) [QR01019K] | −25.9 ± 3.4
34 | CCOc1nc2cccc(C(=O)OC(C)OC(=O)OCc3nc(C)c(C)nc3C)c2n1Cc1ccc(-c2ccccc2-c2noc(=O)[nH]2)cc1 (stereo not drawn) [QR01019] | −10.2 ± 2.1

Same assay, conditions: SHR, oral administration; result in words

Row | Structure (SMILES) | antihypertensive effect compared with the corresponding unsalted compound
35 | CCOc1nc2cccc(C(=O)OCOC(=O)C(C)(C)C)c2n1Cc1ccc(-c2ccccc2-c2noc(=O)[n-]2)cc1.[K+] [QR01005K] | more potent and longer-lasting
36 | CCOc1nc2cccc(C(=O)OCCCCO[N+](=O)[O-])c2n1Cc1ccc(-c2ccccc2-c2noc(=O)[n-]2)cc1.[K+] [QR01008K] | more potent and longer-lasting
37 | CCOc1nc2cccc(C(=O)OCc3c(-c4ccccc4)no[n+]3[O-])c2n1Cc1ccc(-c2ccccc2-c2noc(=O)[n-]2)cc1.[K+] [QR01009K] | more potent and longer-lasting
38 | CCOc1nc2cccc(C(=O)OCCCCOc3no[n+]([O-])c3S(=O)(=O)c3ccccc3)c2n1Cc1ccc(-c2ccccc2-c2noc(=O)[n-]2)cc1.[K+] [QR01011K] | more potent and longer-lasting
39 | CCOc1nc2cccc(C(=O)OCc3oc(=S)oc3C)c2n1Cc1ccc(-c2ccccc2-c2noc(=O)[n-]2)cc1.[K+] [QR01013K] | more potent and longer-lasting
40 | CCOc1nc2cccc(C(=O)OCOC(=O)OCc3nc(C)c(C)nc3C)c2n1Cc1ccc(-c2ccccc2-c2noc(=O)[n-]2)cc1.[K+] [QR01017K] | more potent and longer-lasting
41 | CCOc1nc2cccc(C(=O)OC(C)OC(=O)OCc3nc(C)c(C)nc3C)c2n1Cc1ccc(-c2ccccc2-c2noc(=O)[n-]2)cc1.[K+] (stereo not drawn) [QR01019K] | more potent with a longer-lasting antihypertensive effect
42 | CCOc1nc2cccc(C(=O)OCOC(=O)OCc3no[n+]([O-])c3C)c2n1Cc1ccc(-c2ccccc2-c2noc(=O)[n-]2)cc1.[K+] [QR01020K] | more potent and longer-lasting
